Our source for the inhibition and IC50 values is US9062046B2, “Substituted imidazoquinoline derivatives as kinase inhibitors” (Piramal Enterprises Limited, priority 2011, dated 2015).

The structures appear in SMILES notation.

The subject of experiment [1] is A2780 (ovarian cell line). Put plainly: Cytotoxicity assay (propidium iodide assay), A2780. Conditions: Homo sapiens, A2780 cells, 48 h treatment. Type of experiment: cell-based. As to the method: (§1) The assay was designed as in the reference, Anticancer Drugs, 2002, 13, 1-8, the disclosure of which is incorporated by reference for the teaching of the assay.
(§2) Cells from cell lines A2780 (ovarian cell line) and PC3 (prostate cell line) (both from ATCC) were seeded at a density of 3000 cells/well in a white opaque 96-well plate. Following incubation at 37° C./5% CO2 for a period of 18-24 h, the cells were treated with various concentrations (stock solution was prepared in DMSO and subsequent dilutions were made in media as per ATCC guidelines) of the test compounds for a period of 48 h. At the end of treatment, the culture medium was discarded, the cells were washed with 1×PBS and 200 μl of 7 μg/ml propidium iodide was added to each well. The plates were frozen at −70° C. overnight. For analysis, the plates were warmed to RT, allowed to thaw and were read in PoleStar fluorimeter with the fluorescence setting. The percentage of viable cells in the non-treated set of wells was considered to be 100 and the percentage viability following treatment was calculated accordingly. IC50 values were calculated from graphs plotted using these percentages.

The test system of experiment [2] is PC3 (prostate cell line). Kind of experiment: Cytotoxicity assay (propidium iodide assay), PC3. The format is cell-based. Conditions: Homo sapiens, PC-3, PC3 cells, 48 h treatment. As to the method:
as §1, §2

For the molecule `Cn1c(=NC#N)n(-c2ccc(C(C)(C)C#N)nc2)c2c3cc(-c4ccc(N5CCN(C(=O)OC(C)(C)C)CC5)nc4)ccc3ncc21` [Example 72, tert-butyl 4-(5-(2-(cyanoimino)-1-(6-(2-cyanopropan-2-yl)pyridin-3-yl)-3-methyl-2,3-dihydro-1H-imidazo[4,5-c]quinolin-8-yl)pyridin-2-yl)piperazine-1-carboxylate], the inhibition at 1 µM in experiment [1] and in experiment [2] was under 30% each time.
For `COc1ccc(-n2c(=NC#N)n(C)c3cnc4ccc(-c5ccc(C#N)cc5)cc4c32)cn1` [Example 30, N-(8-(4-cyanophenyl)-1-(6-methoxypyridin-3-yl)-3-methyl-1H-imidazo[4,5-c]quinolin-2(3H)-ylidene)cyanamide], the inhibition at 1 µM in experiment [1] and in experiment [2] was under 30% throughout.
Take `Cn1c(=NC#N)n(-c2ccc(C#N)nc2)c2c3cc(-c4cnc(N)c(C(F)(F)F)c4)ccc3ncc21` [Example 10, N-(8-(6-amino-5-(trifluoromethyl)pyridin-3-yl)-1-(6-cyanopyridin-3-yl)-3-methyl-1H-imidazo[4,5-c]quinolin-2(3H)-ylidene)cyanamide]: the IC50 in experiment [1] and in experiment [2] was at most 0.5 µM each time.
For `COc1ccc(-n2c(=NC#N)n(C)c3cnc4ccc(-c5ccncc5)cc4c32)cn1` [Example 14, N-(1-(6-methoxypyridin-3-yl)-3-methyl-8-(pyridin-4-yl)-1H-imidazo[4,5-c]quinolin-2(3H)-ylidene)cyanamide], the inhibition at 1 µM is at least 70% in experiment [1] and 30 to 70% in experiment [2].
As for `Cn1c(=NC#N)n(-c2ccc(C(C)(C)C#N)cc2)c2c3cc(-c4cnc5ccccc5c4)ccc3ncc21` [Example 7, N-(1-(4-(2-cyanopropan-2-yl)phenyl)-3-methyl-8-(quinolin-3-yl)-1H-imidazo[4,5-c]quinolin-2(3H)-ylidene)cyanamide], the half-inhibitory concentration (IC50) in experiment [1] and in experiment [2] was at most 0.5 µM throughout.
For the molecule `COc1ccc(-n2c(=NC#N)n(C)c3cnc4ccc(-c5cncc(C(F)(F)F)c5)cc4c32)cn1` [Example 25, N-(1-(6-methoxypyridin-3-yl)-3-methyl-8-(5-(trifluoromethyl)pyridin-3-yl)-1H-imidazo[4,5-c]quinolin-2(3H)-ylidene)cyanamide], the values for the inhibition at 1 µM in experiment [1] and in experiment [2] were at least 70% and 30 to 70%, respectively.
The like results for `Cn1c(=NC#N)n(-c2ccc(C(C)(C)C#N)nc2)c2c3cc(-c4ccc(F)cc4)ccc3ncc21` [Example 80, N-(1-(6-(2-cyanopropan-2-yl)pyridin-3-yl)-8-(4-fluorophenyl)-3-methyl-1H-imidazo[4,5-c]quinolin-2(3H)-ylidene)cyanamide] were, in that order, at least 70% and 30 to 70%.
For the molecule `COc1ccc(-n2c(=NC#N)n(C)c3cnc4ccc(-c5cccnc5)cc4c32)c(OC)c1` [Example 101, N-(1-(2,4-dimethoxyphenyl)-3-methyl-8-(pyridin-3-yl)-1H-imidazo[4,5-c]quinolin-2(3H)-ylidene)cyanamide], the IC50 in experiment [1] and in experiment [2] was at most 0.5 µM each time.
Turning to `Cc1ccc(-c2ccc3ncc4c(c3c2)n(-c2ccc(C(C)(C)C#N)nc2)c(=NC#N)n4C)cc1` [Example 67, N-(1-(6-(2-cyanopropan-2-yl)pyridin-3-yl)-3-methyl-8-p-tolyl-1H-imidazo[4,5-c]quinolin-2(3H)-ylidene)cyanamide], the inhibition at 1 µM in experiment [1] and in experiment [2] was 30 to 70% in each case.
Take `COc1ccc(-n2c(=NC#N)n(C)c3cnc4ccc(-c5ccc6ncccc6c5)cc4c32)c(OC)c1` [Example 103, N-(1-(2,4-dimethoxyphenyl)-3-methyl-8-(quinolin-6-yl)-1H-imidazo[4,5-c]quinolin-2(3H)-ylidene)cyanamide]: the concentration for half-maximal inhibition (IC50) in experiment [1] and in experiment [2] was at most 0.5 µM in each case.
For `CNc1ncc(-c2ccc3ncc4c(c3c2)n(-c2ccc(C(C)(C)C#N)cc2)c(=NC#N)n4C)cc1C(F)(F)F` [Example 12, N-(1-(4-(2-cyanopropan-2-yl)phenyl)-3-methyl-8-(6-(methylamino)-5-(trifluoromethyl)pyridin-3-yl)-1H-imidazo[4,5-c]quinolin-2(3H)-ylidene)cyanamide], the half-inhibitory concentration (IC50) in experiment [1] and in experiment [2] was at most 0.5 µM in each case.
Consider `COc1ncc(-c2ccc3ncc4c(c3c2)n(-c2ccc(C(C)(C)C#N)nc2)c(=NC#N)n4C)cc1NS(C)(=O)=O` [Example 126, N-(5-(2-(cyanoimino)-1-(6-(2-cyanopropan-2-yl)pyridin-3-yl)-3-methyl-2,3-dihydro-1H-imidazo[4,5-c]quinolin-8-yl)-2-methoxypyridin-3-yl)methane sulfonamide], for which the IC50 in experiment [1] and in experiment [2] was at most 0.5 µM each time.
As for `Cn1c(=NC#N)n(-c2ccc(OC(F)(F)F)cc2)c2c3cc(-c4cccnc4)ccc3ncc21` [Example 108, N-(3-methyl-8-(pyridin-3-yl)-1-(4-(trifluoromethoxy)phenyl)-1H-imidazo[4,5-c]quinolin-2(3H)-ylidene)cyanamide], the half-inhibitory concentration (IC50) in experiment [1] was at most 0.5 µM; in experiment [2], 0.5 to 2 µM.
`CC(=O)N(C(C)=O)c1ncc(-c2ccc3ncc4c(c3c2)n(-c2ccc(C(C)(C)C#N)cc2)c(=NC#N)n4C)cc1C(F)(F)F` [Example 131, N-acetyl-N-(5-(2-(cyanoimino)-1-(4-(2-cyanopropan-2-yl)phenyl)-3-methyl-2,3-dihydro-1H-imidazo[4,5-c]quinolin-8-yl)-3-(trifluoromethyl)pyridin-2-yl)acetamide]: the inhibition at 1 µM in experiment [1] and in experiment [2] was 30 to 70% in each case.
Consider `Cc1cc(-c2ccc3ncc4c(c3c2)n(-c2ccc(C(C)(C)C#N)nc2)c(=NC#N)n4C)cnc1N1CCN(C(=O)OC(C)(C)C)CC1` [Example 119, tert-butyl 4-(5-(2-(cyanoimino)-1-(6-(2-cyanopropan-2-yl)pyridin-3-yl)-3-methyl-2,3-dihydro-1H-imidazo[4,5-c]quinolin-8-yl)-3-methylpyridin-2-yl)piperazine-1-carboxylate], for which the inhibition at 1 µM in experiment [1] and in experiment [2] was at least 70% in each case.
Turning to `Cn1c(=NC#N)n(-c2ccc(C(C)(C)C#N)nc2)c2c3cc(-c4cnc(NCc5ccccc5)c(C(F)(F)F)c4)ccc3ncc21` [Example 138, N-(8-(6-(benzylamino)-5-(trifluoromethyl)pyridin-3-yl)-1-(6-(2-cyanopropan-2-yl)pyridin-3-yl)-3-methyl-1H-imidazo[4,5-c]quinolin-2(3H)-ylidene)cyanamide], the IC50 in experiment [1] and in experiment [2] was at most 0.5 µM in each case.
`Cn1c(=NC#N)n(-c2ccc(C(C)(C)C#N)nc2)c2c3cc(-c4ccnc(N5CCOCC5)c4Cl)ccc3ncc21` [Example 121, N-(8-(3-chloro-2-morpholinopyridin-4-yl)-1-(6-(2-cyanopropan-2-yl)pyridin-3-yl)-3-methyl-1H-imidazo[4,5-c]quinolin-2(3H)-ylidene)cyanamide]: the inhibition at 1 µM in experiment [1] and in experiment [2] was under 30% throughout.
As for `COc1ccc(-c2ccc3ncc4c(c3c2)n(-c2ccc(C(C)(C)C#N)nc2)c(=NC#N)n4C)cc1OC` [Example 66, N-(1-(6-(2-cyanopropan-2-yl)pyridin-3-yl)-8-(3,4-dimethoxyphenyl)-3-methyl-1H-imidazo[4,5-c]quinolin-2(3H)-ylidene)cyanamide], the inhibition at 1 µM in experiment [1] and in experiment [2] was at least 70% in each case.
For `COc1ncc(-c2ccc3ncc4c(c3c2)n(-c2cncc(-c3ccccc3)c2)c(=NC#N)n4C)cc1N` [Example 93, N-(8-(5-amino-6-methoxypyridin-3-yl)-3-methyl-1-(5-phenylpyridin-3-yl)-1H-imidazo[4,5-c]quinolin-2(3H)-ylidene)cyanamide], the half-inhibitory concentration (IC50) in experiment [1] and in experiment [2] was 0.5 to 2 µM throughout.
For the molecule `COc1cc(-c2ccc3ncc4c(c3c2)n(-c2ccc(C(C)(C)C#N)nc2)c(=NC#N)n4C)cc(OC)c1OC` [Example 57, N-(1-(6-(2-cyanopropan-2-yl)pyridin-3-yl)-3-methyl-8-(3,4,5-trimethoxyphenyl)-1H-imidazo[4,5-c]quinolin-2(3H)-ylidene)cyanamide], the inhibition at 1 µM in experiment [1] is at least 70%; in experiment [2] it was 30 to 70%.
Turning to `COc1ccc(-c2ccc3ncc4c(c3c2)n(-c2ccc(C(C)(C)C#N)cc2)c(=NC#N)n4C)cn1` [Example 91, N-(1-(4-(2-cyanopropan-2-yl)phenyl)-8-(6-methoxypyridin-3-yl)-3-methyl-1H-imidazo[4,5-c]quinolin-2(3H)-ylidene)cyanamide], the IC50 in experiment [1] and in experiment [2] was at most 0.5 µM in each case.
As for `COc1ncc(-c2ccc3ncc4c(c3c2)n(-c2ccc(C(C)(C)C#N)nc2)c(=NC#N)n4C)c(OC)n1` [Example 55, N-(1-(6-(2-cyanopropan-2-yl)pyridin-3-yl)-8-(2,4-dimethoxypyrimidin-5-yl)-3-methyl-1H-imidazo[4,5-c]quinolin-2(3H)-ylidene)cyanamide], the inhibition at 1 µM is at least 70% in experiment [1] and 30 to 70% in experiment [2].
`Cn1c(=NC#N)n(-c2ccc(C(C)(C)C#N)nc2)c2c3cc(-c4ccc5ncccc5c4)ccc3ncc21` [Example 56, N-(1-(6-(2-cyanopropan-2-yl)pyridin-3-yl)-3-methyl-8-(quinolin-6-yl)-1H-imidazo[4,5-c]quinolin-2(3H)-ylidene)cyanamide]: the results for the inhibition at 1 µM in experiment [1] and in experiment [2] were at least 70% and 30 to 70%, respectively.
